The source of these data is patent EP4790046A1, “NOVEL COMPOUND DERIVED FROM MYRISTICA FRAGRANS, AND ANTICANCER COMPOSITION COMPRISING SAME” (Korea Institute of Science and Technology, priority 2023, dated 2025).

Structures are written as SMILES. Where two headings read alike, the source gives them in different places.

One series deals with 23132/87. The series is described as follows: alamarBlue cell viability (survival rate, IC50), 23132/87. Format: cell-based. Conditions: 23132/87 (gastric cancer); for Cancer cell line survival rate (%) / viability at 10 µM: compound 10 µM, 48 hours; for IC50: 2.5-40 µM, positive control = doxorubicin; for viability at 10 µM: read-out: Cancer cell line survival rate (%). From the text: (§1) A p-value < 0.05 was considered statistically significant.
Background: Alamar Blue is a resazurin reagent that responds to reducing activity.

The next series concerns MiaPaCa-2. Briefly: alamarBlue cell viability (survival rate), MiaPaCa-2. It is filed as cell-based. Conditions: MiaPaCa-2 (pancreatic cancer), compound 10 µM, 48 hours; for viability at 10 µM: Homo sapiens, MIA PaCa-2, read-out: Cancer cell line survival rate (%).
From the text: as §1

A further series deals with HepG2. The series is described as follows: alamarBlue cell viability (survival rate), HepG2. It is filed as cell-based. Conditions: HepG2 (liver cancer), compound 10 µM, 48 hours; for viability at 10 µM: Homo sapiens, read-out: Cancer cell line survival rate (%).
From the text: as §1

In the next series the test system is SNU201. Briefly: alamarBlue cell viability (survival rate), SNU201. Format: cell-based. Conditions: SNU201 (glioblastoma), compound 10 µM, 48 hours; for viability at 10 µM: read-out: Cancer cell line survival rate (%).
From the text: as §1

Another series relates to SNU-719. Briefly: alamarBlue cell viability (survival rate, IC50), SNU-719. It is filed as cell-based. Particulars: for Cancer cell line survival rate (%) / viability at 10 µM: SNU-719 (gastric cancer), compound 10 µM, 48 hours; for IC50: SNU719 (gastric cancer), 2.5-40 µM, positive control = doxorubicin; for viability at 10 µM: read-out: Cancer cell line survival rate (%).
From the text: as §1

For another series, the system named is SNU-C5. The series is described as follows: alamarBlue cell viability (survival rate, IC50), SNU-C5. It is filed as cell-based. Particulars: for Cancer cell line survival rate (%) / viability at 10 µM: SNU-C5 (colorectal cancer), compound 10 µM, 48 hours; for viability at 10 µM: read-out: Cancer cell line survival rate (%).
From the text: as §1

For the next series, the system named is SNU-81. The series is described as follows: alamarBlue cell viability (survival rate, IC50), SNU-81. Particulars: for Cancer cell line survival rate (%) / viability at 10 µM: SNU-81 (colorectal cancer), compound 10 µM, 48 hours; for viability at 10 µM: read-out: Cancer cell line survival rate (%). Format: cell-based.
From the text: as §1

The next series relates to AGS. The series is described as follows: alamarBlue cell viability (survival rate, IC50), AGS. It is filed as cell-based. Particulars: AGS (gastric cancer); for Cancer cell line survival rate (%) / viability at 10 µM: compound 10 µM, 48 hours; for IC50 / viability at 10 µM: Homo sapiens; for IC50: 2.5-40 µM, positive control = doxorubicin; for viability at 10 µM: read-out: Cancer cell line survival rate (%).
From the text: as §1

The next series deals with SNU466. Briefly: alamarBlue cell viability (survival rate), SNU466. Format: cell-based. Particulars: SNU466 (glioblastoma), compound 10 µM, 48 hours; for viability at 10 µM: read-out: Cancer cell line survival rate (%).
From the text: as §1

The test system of another series is SW48. Briefly: alamarBlue cell viability (survival rate, IC50), SW48. Format: cell-based. Particulars: SW48 (colorectal cancer); for Cancer cell line survival rate (%) / viability at 10 µM: compound 10 µM, 48 hours; for IC50 / viability at 10 µM: Homo sapiens; for IC50: 2.5-40 µM, positive control = oxaliplatin; for viability at 10 µM: read-out: Cancer cell line survival rate (%).
From the text: as §1

For series [1], the system named is various cancer cell lines. The series is described as follows: alamarBlue cell viability, statements across the cell line panel. Conditions: for anticancer activity: various cancer cell lines.
Procedure: AGS, SW48, HepG2, and MiaPaCa-2 was purchased from ATCC (American Type Culture Collection, USA), SNU cell lines from the Korean Cell Line Bank (KCLB, Korea), and 23132/87 from the Leibniz Institute DSMZ - German Collection of Microorganisms and Cell Cultures GmbH (DSMZ, Germany). All cell lines were cultured in RPMI-1640 medium (HyClone, USA) supplemented with 10% FBS (Gibco, USA) and 1% penicillin-streptomycin (HyClone, USA) under conditions of 5% CO2, 37°C.
Cells were seeded at a density of 5 × 10^3cells/well in a 96-well plate for 24 hours, then treated with the compound at an appropriate concentration (10 µM) for 48 hours. After treatment, alamarBlue reagent was added at a volume ratio of 1/10 of the treatment volume and incubated for 4 hours in a 37°C cell incubator (protected from direct light). Cell viability was then determined by measuring absorbance values at 570 nm and 600 nm using a microplate reader. The anticancer effects of candidate compounds were evaluated by assessing the cell viability (%) of cells treated at specific concentrations and the half-maximal inhibitory concentration (IC50) of each natural product. Doxorubicin and oxaliplatin were used as positive controls for gastric and colorectal cancer, respectively.
Statistical analysis was performed using R software (version 4.2.2) (R Core Team). Differences between groups were assessed using student's t-test or 1-way ANOVA followed by post-hoc Tukey HSD test. A p-value < 0.05 was considered statistically significant.
Further, to measure the IC50 values against six cancer cell lines.
Setting [2] is: SNUC5 (colorectal cancer), 2.5-40 µM, positive control = oxaliplatin, read-out: IC50.
[3] abbreviates: SNU81 (colorectal cancer), 2.5-40 µM, positive control = oxaliplatin, read-out: IC50.

In the case of `C/C=C/c1ccc(O[C@H](C)[C@H](c2ccc(O)c(OC)c2)c2ccc(O)c(C(=O)CCCCCCCCc3ccc(O)c(O)c3)c2O)c(OC)c1` (relative stereo) [Compound 8, Myrifragranone A], the “Cancer cell line survival rate (%)” value in the series on 23132/87 is given as 3.92%; in the series on MiaPaCa-2, 74.57%; in the series with HepG2 it was 95.41%; in the series with SNU201, 108.12%; in the series on SNU-719 it was 2.27%; in the series on SNU-C5 it was 4.41%. Moreover, the “Cancer cell line survival rate (%)” value was determined as 10.02% with SNU-81, 2.19% with AGS, 93.39% with SNU466 and 2.04% in the series with SW48.

For the compound `C=CCc1cc(OC)c(O[C@H](C)[C@H](c2ccc(O)c(OC)c2)c2ccc(O)c(C(=O)CCCCCCCCc3ccc(O)c(O)c3)c2O)c(OC)c1` [Compound 1, Myricone A or Myrifragranone B, reference compound], the IC50 (as a rule, the concentration that inhibits the measured activity by half) with 23132/87 is 4.09 µM; with SNU-719, 3.99 µM; with SNU-C5 (setting [2]), 6.32 µM; in the series with SNU-81 (setting [3]), 14.6 µM; in the series with AGS, 4.07 µM; in the series on SW48, 4.3 µM. Further, the “Cancer cell line survival rate (%)” value stood at 4.71% with 23132/87; 3.15% with MiaPaCa-2; 2.07% in the series on HepG2; 2.07% with SNU201; 3.95% with SNU-719; 8.73% in the series on SNU-C5. For the same compound, the “Cancer cell line survival rate (%)” value stood at 94.79% in the series on SNU-81, 1.13% with AGS, 1.7% in the series on SNU466 and 1.75% in the series on SW48.

On to `C=CCc1cc(OC)c(O[C@H](C)[C@@H](c2ccc(O)c(OC)c2)c2ccc(O)c(C(=O)CCCCCCCCc3ccc(O)c(O)c3)c2O)c(OC)c1` [Compound 2, Myricone B], for which the IC50 in the series on 23132/87 was determined as 4.25 µM; in the series with SNU-719 it was 4.7 µM; in the series on SNU-C5 (setting [2]) it was 6.85 µM; in the series on SNU-81 (setting [3]), 16.6 µM; in the series on AGS it was 4.59 µM; with SW48, 6.18 µM. For the same compound, the viability at 10 µM in the series on 23132/87 is 7.44%; with MiaPaCa-2 it was 3.67%; in the series with HepG2 it was 1.47%; in the series on SNU201 it was 1.43%; in the series on SNU-719, 4.55%; in the series with SNU-C5, 22.1%. In addition, the viability at 10 µM is 103% in the series on SNU-81, 2.45% in the series with AGS, 2.29% in the series with SNU466 and 7.98% in the series with SW48.

Regarding `C=CCc1cc(OC)c(O[C@H](C)[C@@H](c2ccc(O)c(OC)c2)c2ccc(O)c(C(=O)CCCCCCCCc3ccc(O)cc3)c2O)c(OC)c1` [Compound 4, Myricone D], the IC50 with 23132/87 is 4.14 µM; with SNU-719, 5.01 µM; in the series on SNU-C5 (setting [2]) it was 5.57 µM; with SNU-81 (setting [3]), 16.9 µM; in the series with AGS it was 7.27 µM; in the series on SW48, 5.73 µM. For the same compound, the “Cancer cell line survival rate (%)” value in the series with 23132/87 was 8.41%; with MiaPaCa-2, 3.54%; in the series with HepG2, 1.84%; in the series on SNU201, 2.44%; in the series with SNU-719, 10.19%; with SNU-C5, 12.41%. Also, the “Cancer cell line survival rate (%)” value in the series on SNU-81 came to 115.60%; in the series with AGS it was 10.15%; in the series with SNU466, 1.74%; in the series with SW48 it was 2.61%. Besides, the anticancer activity entry in [1] is recorded as “high anticancer activity”.

Regarding `C=CCc1ccc(O[C@H](C)[C@H](c2ccc(O)c(OC)c2)c2ccc(O)c(C(=O)CCCCCCCCc3ccc(O)c(O)c3)c2O)c(OC)c1` [Compound 5, Myricone E], the viability at 10 µM with 23132/87 is 52.1%; in the series with MiaPaCa-2 it was 1.64%; with HepG2, 2.34%; with SNU201 it was 0.61%; in the series with SNU-719, 45%; in the series with SNU-C5, 37.6%. The viability at 10 µM with SNU-81 was found to be 126%; in the series on AGS, 42.1%; with SNU466 it was 0.58%; in the series with SW48, 10.2%.

With `C=CCc1cc(OC)c(O[C@H](C)[C@H](c2ccc(O)c(OC)c2)c2cc(O)c(O)cc2CCCCCCCCC(=O)c2c(O)cccc2O)c(OC)c1` [Compound 6, Myricone F], the 50% inhibitory concentration (IC50) is 2.39 µM in the series with 23132/87; 2.58 µM in the series with SNU-719; 4.04 µM with SNU-C5 (setting [2]); 10.3 µM with SNU-81 (setting [3]); 3.35 µM in the series on AGS; 3.09 µM with SW48. Besides, the viability at 10 µM in the series on 23132/87 was found to be 1.46%; in the series with MiaPaCa-2, 2.16%; in the series with HepG2, 1.32%; with SNU201 it was 1.4%; in the series on SNU-719 it was 1.36%; with SNU-C5, 3.53%. Also, the viability at 10 µM in the series with SNU-81 was 55.8%; with AGS, 0.51%; in the series with SNU466, 1.96%; in the series with SW48, 0.82%. The cytotoxic effects result in [1] (gastric cancer cell lines and colorectal cancer cell lines, 10 µM, 48 hours) is “excellent cytotoxic effects”. The anticancer activity result in series [1] is given as “high anticancer activity”.

As to `COc1cc([C@H]2Oc3c(OC)cc(/C=C/Cc4c(CCCCCCCCC(=O)c5c(O)cccc5O)ccc(O)c4O)cc3[C@@H]2C)ccc1O` [Compound 18, Myricone T], the viability at 10 µM turned out to be 87.1% with 23132/87; 74.8% with MiaPaCa-2; 89% in the series with HepG2; 104% in the series on SNU201; 104% in the series with SNU-719; 78% in the series on SNU-C5. Also, the viability at 10 µM with SNU-81 turned out to be 102%; with AGS, 91.9%; in the series with SNU466, 86.2%; with SW48, 83.5%.

For the compound `COc1cc([C@H]2Oc3c(OC)cc(/C=C/Cc4ccc(O)c(C(=O)CCCCCCCCc5ccc(O)c(O)c5)c4O)cc3[C@@H]2C)ccc1O` [Compound 19, Myricone X], the viability at 10 µM worked out at 89.3% with 23132/87; 56.9% in the series on MiaPaCa-2; 52.4% in the series with HepG2; 107% with SNU201; 108% in the series with SNU-719; 69.6% in the series on SNU-C5. The viability at 10 µM amounted to 102% in the series on SNU-81, 84.5% in the series with AGS, 80.9% in the series on SNU466 and 69.7% in the series with SW48.

As to `O=C(CCCCCCCCc1cc(O)c(O)cc1-c1ccc(O)c(C(=O)CCCCCCCCc2ccc(O)c(O)c2)c1O)c1c(O)cccc1O` [Compound 26, Giganteones A, reference compound], the IC50 in the series on 23132/87 was 4.08 µM; in the series with SNU-719, 4.6 µM; in the series with SNU-C5 (setting [2]) it was 3.72 µM; in the series on SNU-81 (setting [3]), 8.94 µM; in the series on AGS, 1.71 µM; in the series on SW48, 2.77 µM. Also, the “anticancer activity (comparison of IC50 values among compounds)” value in series [1] (six cancer cell lines, 2.5-40 µM) was “overall superior activity to Myrifragranone B and Malabaricone C”.

`O=C1[O][Pt]2([NH][C@@H]3CCCC[C@H]3[NH]2)[O]C1=O` [oxaliplatin, reference compound]: the 50% inhibitory concentration (IC50) in the series on SNU-C5 (SNUC5 cells, compound 2.5-40 µM, read-out: IC50 values) is 12.6 µM; with SNU-81 (SNU81 cells, compound 2.5-40 µM, read-out: IC50 values), 41.5 µM.
